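All cell lines were grown in 96-well plates and treated with compound for 48 hours. GI50: concentration for 50% inhibition of growth.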 The source made the active and inactive calls. Rule as the data show it: active = GI50 up to about 1.1 µM and inactive = higher.
Key:
Assay in all cases: NCI anticancer screen, dose series, 48 h
A549 = tested on: A549
ACHN = tested on: ACHN
COLO 205 = tested on: COLO 205
HCC 2998 = tested on: HCC 2998
HCT-15 = tested on: HCT-15
HOP-62 = tested on: HOP-62
HT-29 = tested on: HT-29
IGROV-1 = tested on: IGROV-1
MDA-N = tested on: MDA-N
MOLT-4 = tested on: MOLT-4
NCI-H226 = tested on: NCI-H226
OVCAR-3 = tested on: OVCAR-3
OVCAR-4 = tested on: OVCAR-4
RPMI-8226 = tested on: RPMI-8226
SF-539 = tested on: SF-539
SK-MEL-2 = tested on: SK-MEL-2
U-251 = tested on: U-251
UO-31 = tested on: UO-31
SR = tested on: SR

Structure (SMILES) | GI50 (A549) | GI50 (ACHN) | GI50 (COLO 205) | GI50 (HCC 2998) | GI50 (HCT-15) [µM] | GI50 (HOP-62) | GI50 (HT-29) | GI50 (IGROV-1) | GI50 (MDA-N) | GI50 (MOLT-4) | GI50 (NCI-H226) | GI50 (OVCAR-3) | GI50 (OVCAR-4) | GI50 (RPMI-8226) | GI50 (SF-539) | GI50 (SK-MEL-2) | GI50 (U-251) | GI50 (UO-31) | GI50 (SR)
C[n+]1c2ccccc2c(C(=O)Nc2ccc(S(=O)(=O)N=C(N)N)cc2)c2ccccc21 | > 100 µM (inactive) | > 100 µM (inactive) | > 100 µM (inactive) | > 100 µM (inactive) | > 100 | > 100 µM (inactive) | > 100 µM (inactive) | 35.6 µM (inactive) | > 100 µM (inactive) | 25.5 µM (inactive) | > 100 µM (inactive) | > 100 µM (inactive) | > 100 µM (inactive) | > 100 µM (inactive) | > 100 µM (inactive) | > 100 µM (inactive) | > 100 µM (inactive) | > 100 µM (inactive) | –
O=C(CSC1=NCCN1)c1ccccc1 | > 100 µM (inactive) | > 100 µM (inactive) | > 100 µM (inactive) | – | > 100 | > 100 µM (inactive) | > 100 µM (inactive) | > 100 µM (inactive) | > 100 µM (inactive) | > 100 µM (inactive) | > 100 µM (inactive) | > 100 µM (inactive) | > 100 µM (inactive) | > 100 µM (inactive) | > 100 µM (inactive) | > 100 µM (inactive) | > 100 µM (inactive) | > 100 µM (inactive) | > 100 µM (inactive)
O=C(Nc1nc(C23CC4CC(CC(C4)C2)C3)cs1)c1cc2ccc(O)cc2oc1=O | 15.9 µM (inactive) | 10.6 µM (inactive) | 5.36 µM (inactive) | 10.6 µM (inactive) | 4.46 | 15.2 µM (inactive) | 14.4 µM (inactive) | 7.41 µM (inactive) | 14 µM (inactive) | 5.9 µM (inactive) | 18 µM (inactive) | 13.8 µM (inactive) | 8.26 µM (inactive) | 5.35 µM (inactive) | 17.1 µM (inactive) | – | 12.8 µM (inactive) | 7.36 µM (inactive) | –
CCC1C2Cc3ccc(O)cc3C1(CC)CCN2C (stereo unspecified) | > 100 µM (inactive) | > 100 µM (inactive) | > 100 µM (inactive) | – | > 100 | > 100 µM (inactive) | > 100 µM (inactive) | > 100 µM (inactive) | > 100 µM (inactive) | > 100 µM (inactive) | > 100 µM (inactive) | > 100 µM (inactive) | > 100 µM (inactive) | > 100 µM (inactive) | > 100 µM (inactive) | > 100 µM (inactive) | > 100 µM (inactive) | > 100 µM (inactive) | > 100 µM (inactive)
O=C1CSSCC(=O)Nc2ccccc2N1 | > 100 µM (inactive) | > 100 µM (inactive) | > 100 µM (inactive) | – | > 100 | > 100 µM (inactive) | > 100 µM (inactive) | > 100 µM (inactive) | > 100 µM (inactive) | 55.6 µM (inactive) | > 100 µM (inactive) | > 100 µM (inactive) | > 100 µM (inactive) | > 100 µM (inactive) | > 100 µM (inactive) | > 100 µM (inactive) | > 100 µM (inactive) | > 100 µM (inactive) | > 100 µM (inactive)
O=c1[nH]c2ccccc2c(=O)n1/N=C\c1ccccc1O | > 100 µM (inactive) | > 100 µM (inactive) | > 100 µM (inactive) | – | > 100 | > 100 µM (inactive) | > 100 µM (inactive) | > 100 µM (inactive) | > 100 µM (inactive) | > 100 µM (inactive) | > 100 µM (inactive) | > 100 µM (inactive) | – | > 100 µM (inactive) | > 100 µM (inactive) | > 100 µM (inactive) | > 100 µM (inactive) | > 100 µM (inactive) | > 100 µM (inactive)
